# In ChEMBL document CHEMBL4376889, “Discovery of a Brain-Penetrant ATP-Competitive Inhibitor of the Mechanistic Target of Rapamycin (mTOR) for CNS Disorders” (J Med Chem, 2020):
# Active and inactive are the calls of the source. No cut-off for these calls is given here.
# Tests used:
# [1] = Ratio of drug concentration in brain to plasma in C57BL/6 mouse at 1 mg/kg, iv incubated for 2 hrs by LC-MS/MS analysis; type: ADME, organism-based; conditions: read-out: BPR
# [2] = tested on: Cortical neurone; test: Inhibition of overgrowth of mouse primary cortical neuron harboring TSC1 deletion mutant at 200 nM incubated for 7 days by immunofluorescence assay; type: functional, cell-based
# [3] = Drug uptake in C57BL/6J mouse brain at 3 mg/kg, po incubated for 3 hrs by LC-MS/MS analysis; type: ADME, organism-based; conditions: read-out: Drug uptake
# [4] = target: Serine/threonine-protein kinase mTOR (Rattus norvegicus, UniProt P42346); test: Inhibition of mTOR in rat primary cortical neuron assessed as reduction in PS6 phosphorylation incubated for 4 hrs by Western blot analysis (reference value: 19 nM)
# [5] = AUC (0 to t) in C57BL/6 mouse at 5 mg/kg, po by HPLC analysis; type: ADME, organism-based; conditions: in vivo
# [6] = Tmax in C57BL/6 mouse at 1 mg/kg, iv or 5 mg/kg, po by HPLC analysis; type: ADME, organism-based; conditions: in vivo
# [7] = target: 1-phosphatidylinositol 3-phosphate 5-kinase (Homo sapiens) (UniProt Q9Y2I7); test: Inhibition of wild-type human partial length PIKFYVE (F1512 to C2098 residues) expressed in mammalian expression system at 10000 nM by Kinomescan method
# [8] = target: Serine/threonine-protein kinase mTOR (Rattus norvegicus, UniProt P42346, C1483Y); test: Inhibition of mTOR C1483Y mutant in rat primary cortical neuron assessed as reduction in PS6 phosphorylation incubated for 4 hrs by Western blot analysis (reference value: 19 nM)
# [9] = Solubility of compound at pH 6.8; type: physicochemical; conditions: buffer
# [10] = Ratio of drug concentration in brain to plasma in Sprague-Dawley rat at 3 mg/kg, po incubated for 1 hr by LC-MS/MS analysis; type: ADME, organism-based; conditions: read-out: BPR
# [11] = Volume of distribution at steady state in C57BL/6 mouse at 1 mg/kg, iv or 5 mg/kg, po by HPLC analysis; type: ADME, organism-based; conditions: in vivo, read-out: Vdss
# [12] = Stability in rat liver microsomes assessed as intrinsic clearance at 1 uM incubated for 30 mins by LC-MS/MS analysis; type: ADME, Microsome; conditions: read-out: CLH
# [13] = target: Serine/threonine-protein kinase mTOR (Mus musculus) (UniProt Q9JLN9); test: Inhibition of mTOR in mouse primary cortical neuron harboring TSC1 deletion mutant assessed as reduction in PS6 phosphorylation incubated for 4 hrs by Western blot analysis
# [14] = Drug uptake in C57BL/6J mouse plasma at 1 mg/kg, po incubated for 3 hrs by LC-MS/MS analysis; type: ADME, organism-based
# [15] = Drug uptake in C57BL/6J mouse brain at 1 mg/kg, po incubated for 3 hrs by LC-MS/MS analysis; type: ADME, organism-based; conditions: read-out: Drug uptake
# [16] = AUC (0 to t) in C57BL/6 mouse at 1 mg/kg, iv by HPLC analysis; type: ADME, organism-based; conditions: in vivo
# [17] = target: Cytochrome P450 3A4 (Homo sapiens, UniProt P08684); test: Inhibition of CYP3A4 (unknown origin); type: ADME
# [18] = Cmax in Sprague-Dawley rat at 1 mg/kg, iv or 3 mg/kg, po by HPLC analysis; type: ADME, organism-based; conditions: in vivo
# [19] = Stability in rat liver microsomes assessed as intrinsic clearance; type: ADME, Microsome; conditions: read-out: CLH
# [20] = Oral bioavailability in Sprague-Dawley rat at 3 mg/kg by HPLC analysis; type: ADME, organism-based; conditions: in vivo
# [21] = target: Serine/threonine-protein kinase ATR (Homo sapiens, UniProt Q13535); test: Inhibition of ATR (unknown origin) assessed as reduction in CHK1 phosphorylation by cell based assay
# [22] = target: Serine/threonine-protein kinase mTOR (Rattus norvegicus, UniProt P42346, S2215Y); test: Inhibition of mTOR S2215Y mutant in rat primary cortical neuron assessed as reduction in PS6 phosphorylation incubated for 4 hrs by Western blot analysis (reference value: 19 nM)
# [23] = tested on: Mus musculus; test: Protection against C57BL/6J mouse model of neuronal mTOR hyperactivity assessed as survival rate at 10 mg/kg, ip administered on postnatal day 22 daily and measured on postnatal day 36 (reference value: 48 %); type: functional
# [24] = target: Serine/threonine-protein kinase mTOR (Rattus norvegicus, UniProt P42346, S2215F); test: Inhibition of mTOR S2215F mutant in rat primary cortical neuron assessed as reduction in PS6 phosphorylation incubated for 4 hrs by Western blot analysis (reference value: 19 nM)
# [25] = Volume of distribution at steady state in Sprague-Dawley rat at 1 mg/kg, iv or 3 mg/kg, po by HPLC analysis; type: ADME, organism-based; conditions: in vivo, read-out: Vdss
# [26] = tested on: Mus musculus; test: In vivo inhibition of mTOR pathway in C57BL/6J mouse assessed as reduction in mTORC1/mTORC2 complex by measuring AKT phosphorylation level at 1 to 10 mg/kg, po measured after 24 hrs by Western blot analysis; type: functional, organism-based
# [27] = Half life in C57BL/6 mouse at 1 mg/kg, iv or 5 mg/kg, po by HPLC analysis; type: ADME, organism-based; conditions: in vivo
# [28] = target: Phosphatidylinositol 4,5-bisphosphate 3-kinase catalytic subunit gamma isoform (Homo sapiens, UniProt P48736); test: Inhibition of PI3Kgamma (unknown origin)
# [29] = Drug uptake in C57BL/6J mouse plasma at 3 mg/kg, po incubated for 3 hrs by LC-MS/MS analysis; type: ADME, organism-based
# [30] = tested on: Cortical neurone; test: Inhibition of oversizing of mouse primary cortical neuron harboring TSC1 deletion mutant at 200 nM incubated for 7 days by immunofluorescence assay; type: functional, cell-based; conditions: 168 h
# [31] = tested on: Mus musculus; test: Protection against C57BL/6J mouse model of neuronal mTOR hyperactivity assessed as survival rate at 10 mg/kg, ip administered on postnatal day 22 daily and measured on postnatal day 52 (reference value: 48 %); type: functional
# [32] = Ratio of drug concentration in brain to plasma in C57BL/6J mouse at 10 mg/kg, po incubated for 3 hrs by LC-MS/MS analysis; type: ADME, organism-based; conditions: read-out: BPR
# [33] = Ratio of drug concentration in brain to plasma in C57BL/6 mouse at 1 mg/kg, iv incubated for 0.5 hrs by LC-MS/MS analysis; type: ADME, organism-based; conditions: read-out: BPR
# [34] = target: Serine/threonine-protein kinase mTOR (Rattus norvegicus, UniProt P42346, E2419K); test: Inhibition of mTOR E2419K mutant in rat primary cortical neuron assessed as reduction in PS6 phosphorylation incubated for 4 hrs by Western blot analysis (reference value: 19 nM)
# [35] = Selectivity index, ratio of IC50 for ATR (unknown origin) to IC50 for inhibition of mTOR in mouse MEF cells harboring TSC1 deletion mutant; type: cell-based
# [36] = target: DNA-dependent protein kinase catalytic subunit (Homo sapiens, UniProt P78527); test: Inhibition of DNAPK (unknown origin)
# [37] = Drug uptake in C57BL/6J mouse brain at 10 mg/kg, po incubated for 3 hrs by LC-MS/MS analysis; type: ADME, organism-based; conditions: read-out: Drug uptake
# [38] = target: Phosphatidylinositol 4,5-bisphosphate 3-kinase catalytic subunit alpha isoform (Homo sapiens, UniProt P42336); test: Inhibition of PI3Kalpha (unknown origin)
# Chain of Phosphatidylinositol 4,5-bisphosphate 3-kinase catalytic subunit alpha isoform (P42336 whole entry, canonical isoform): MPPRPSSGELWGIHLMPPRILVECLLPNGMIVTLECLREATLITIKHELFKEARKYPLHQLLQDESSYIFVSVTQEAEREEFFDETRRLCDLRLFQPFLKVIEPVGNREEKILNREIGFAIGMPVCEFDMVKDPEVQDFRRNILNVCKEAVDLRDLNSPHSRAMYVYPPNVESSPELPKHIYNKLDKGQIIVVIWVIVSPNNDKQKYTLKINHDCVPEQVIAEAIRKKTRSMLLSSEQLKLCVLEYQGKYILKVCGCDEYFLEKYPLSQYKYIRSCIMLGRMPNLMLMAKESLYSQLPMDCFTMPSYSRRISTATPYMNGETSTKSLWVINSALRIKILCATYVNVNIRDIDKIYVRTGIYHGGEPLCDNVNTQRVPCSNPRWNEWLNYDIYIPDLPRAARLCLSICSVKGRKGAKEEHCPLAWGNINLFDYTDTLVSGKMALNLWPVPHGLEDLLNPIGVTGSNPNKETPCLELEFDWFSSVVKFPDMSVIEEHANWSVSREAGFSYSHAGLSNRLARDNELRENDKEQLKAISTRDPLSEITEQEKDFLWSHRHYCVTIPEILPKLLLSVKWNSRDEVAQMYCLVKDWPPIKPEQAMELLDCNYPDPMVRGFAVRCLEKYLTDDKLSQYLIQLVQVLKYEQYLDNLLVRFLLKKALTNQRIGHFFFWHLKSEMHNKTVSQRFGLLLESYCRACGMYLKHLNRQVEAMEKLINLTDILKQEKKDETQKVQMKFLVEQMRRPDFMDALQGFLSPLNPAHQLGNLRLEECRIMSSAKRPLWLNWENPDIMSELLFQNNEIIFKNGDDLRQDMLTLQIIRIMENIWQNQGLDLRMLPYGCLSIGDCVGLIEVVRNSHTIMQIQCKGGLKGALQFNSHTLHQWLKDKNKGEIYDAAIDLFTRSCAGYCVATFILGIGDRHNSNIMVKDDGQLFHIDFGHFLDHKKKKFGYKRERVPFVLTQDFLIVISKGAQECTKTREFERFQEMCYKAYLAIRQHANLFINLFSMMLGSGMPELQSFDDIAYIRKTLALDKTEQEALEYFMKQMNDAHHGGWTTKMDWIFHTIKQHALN
# Chain of Phosphatidylinositol 4,5-bisphosphate 3-kinase catalytic subunit gamma isoform (P48736 whole entry, canonical isoform): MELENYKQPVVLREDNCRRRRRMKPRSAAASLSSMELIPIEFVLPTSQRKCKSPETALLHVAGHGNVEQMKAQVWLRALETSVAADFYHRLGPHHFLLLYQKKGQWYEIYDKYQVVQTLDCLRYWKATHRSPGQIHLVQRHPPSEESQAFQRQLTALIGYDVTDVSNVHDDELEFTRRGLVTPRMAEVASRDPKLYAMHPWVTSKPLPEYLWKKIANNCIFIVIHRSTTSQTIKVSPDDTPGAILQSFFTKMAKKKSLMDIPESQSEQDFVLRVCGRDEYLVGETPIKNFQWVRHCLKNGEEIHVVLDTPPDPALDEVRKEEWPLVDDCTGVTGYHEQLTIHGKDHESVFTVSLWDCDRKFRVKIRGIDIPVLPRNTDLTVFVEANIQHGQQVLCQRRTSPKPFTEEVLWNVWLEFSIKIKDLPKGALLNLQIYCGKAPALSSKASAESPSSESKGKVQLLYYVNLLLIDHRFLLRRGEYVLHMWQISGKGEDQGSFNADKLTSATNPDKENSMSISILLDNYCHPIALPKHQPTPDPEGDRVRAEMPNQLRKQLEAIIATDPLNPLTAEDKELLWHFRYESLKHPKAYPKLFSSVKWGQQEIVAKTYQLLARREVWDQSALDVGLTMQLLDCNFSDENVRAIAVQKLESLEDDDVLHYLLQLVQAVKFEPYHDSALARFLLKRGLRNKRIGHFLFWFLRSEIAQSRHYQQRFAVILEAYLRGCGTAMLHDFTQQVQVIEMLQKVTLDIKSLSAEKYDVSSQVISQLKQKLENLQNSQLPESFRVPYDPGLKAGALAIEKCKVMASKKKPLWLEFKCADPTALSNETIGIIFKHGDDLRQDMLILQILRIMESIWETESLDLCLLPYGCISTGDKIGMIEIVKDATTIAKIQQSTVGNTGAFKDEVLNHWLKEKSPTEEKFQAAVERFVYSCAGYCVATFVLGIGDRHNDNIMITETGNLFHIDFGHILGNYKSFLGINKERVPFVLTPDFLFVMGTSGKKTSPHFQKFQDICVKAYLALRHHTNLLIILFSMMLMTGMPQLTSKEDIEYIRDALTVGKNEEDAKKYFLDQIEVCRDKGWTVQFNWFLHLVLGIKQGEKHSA
# Chain of Cytochrome P450 3A4 (P08684 whole entry): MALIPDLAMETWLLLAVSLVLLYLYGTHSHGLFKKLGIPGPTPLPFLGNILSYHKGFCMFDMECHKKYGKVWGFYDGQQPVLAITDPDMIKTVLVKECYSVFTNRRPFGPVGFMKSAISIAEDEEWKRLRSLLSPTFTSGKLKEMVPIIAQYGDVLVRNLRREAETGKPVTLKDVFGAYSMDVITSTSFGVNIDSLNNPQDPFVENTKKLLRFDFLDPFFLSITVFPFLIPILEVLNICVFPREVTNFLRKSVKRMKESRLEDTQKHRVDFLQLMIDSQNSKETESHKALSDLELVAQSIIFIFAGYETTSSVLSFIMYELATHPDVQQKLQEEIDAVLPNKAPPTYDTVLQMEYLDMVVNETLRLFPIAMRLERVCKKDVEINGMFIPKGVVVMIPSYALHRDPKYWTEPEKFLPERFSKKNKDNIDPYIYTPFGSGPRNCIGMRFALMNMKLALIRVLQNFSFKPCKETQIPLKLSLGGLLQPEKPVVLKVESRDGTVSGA
# Chain of 1-phosphatidylinositol 3-phosphate 5-kinase (Homo sapiens) (Q9Y2I7 whole entry, the tested form may be a part): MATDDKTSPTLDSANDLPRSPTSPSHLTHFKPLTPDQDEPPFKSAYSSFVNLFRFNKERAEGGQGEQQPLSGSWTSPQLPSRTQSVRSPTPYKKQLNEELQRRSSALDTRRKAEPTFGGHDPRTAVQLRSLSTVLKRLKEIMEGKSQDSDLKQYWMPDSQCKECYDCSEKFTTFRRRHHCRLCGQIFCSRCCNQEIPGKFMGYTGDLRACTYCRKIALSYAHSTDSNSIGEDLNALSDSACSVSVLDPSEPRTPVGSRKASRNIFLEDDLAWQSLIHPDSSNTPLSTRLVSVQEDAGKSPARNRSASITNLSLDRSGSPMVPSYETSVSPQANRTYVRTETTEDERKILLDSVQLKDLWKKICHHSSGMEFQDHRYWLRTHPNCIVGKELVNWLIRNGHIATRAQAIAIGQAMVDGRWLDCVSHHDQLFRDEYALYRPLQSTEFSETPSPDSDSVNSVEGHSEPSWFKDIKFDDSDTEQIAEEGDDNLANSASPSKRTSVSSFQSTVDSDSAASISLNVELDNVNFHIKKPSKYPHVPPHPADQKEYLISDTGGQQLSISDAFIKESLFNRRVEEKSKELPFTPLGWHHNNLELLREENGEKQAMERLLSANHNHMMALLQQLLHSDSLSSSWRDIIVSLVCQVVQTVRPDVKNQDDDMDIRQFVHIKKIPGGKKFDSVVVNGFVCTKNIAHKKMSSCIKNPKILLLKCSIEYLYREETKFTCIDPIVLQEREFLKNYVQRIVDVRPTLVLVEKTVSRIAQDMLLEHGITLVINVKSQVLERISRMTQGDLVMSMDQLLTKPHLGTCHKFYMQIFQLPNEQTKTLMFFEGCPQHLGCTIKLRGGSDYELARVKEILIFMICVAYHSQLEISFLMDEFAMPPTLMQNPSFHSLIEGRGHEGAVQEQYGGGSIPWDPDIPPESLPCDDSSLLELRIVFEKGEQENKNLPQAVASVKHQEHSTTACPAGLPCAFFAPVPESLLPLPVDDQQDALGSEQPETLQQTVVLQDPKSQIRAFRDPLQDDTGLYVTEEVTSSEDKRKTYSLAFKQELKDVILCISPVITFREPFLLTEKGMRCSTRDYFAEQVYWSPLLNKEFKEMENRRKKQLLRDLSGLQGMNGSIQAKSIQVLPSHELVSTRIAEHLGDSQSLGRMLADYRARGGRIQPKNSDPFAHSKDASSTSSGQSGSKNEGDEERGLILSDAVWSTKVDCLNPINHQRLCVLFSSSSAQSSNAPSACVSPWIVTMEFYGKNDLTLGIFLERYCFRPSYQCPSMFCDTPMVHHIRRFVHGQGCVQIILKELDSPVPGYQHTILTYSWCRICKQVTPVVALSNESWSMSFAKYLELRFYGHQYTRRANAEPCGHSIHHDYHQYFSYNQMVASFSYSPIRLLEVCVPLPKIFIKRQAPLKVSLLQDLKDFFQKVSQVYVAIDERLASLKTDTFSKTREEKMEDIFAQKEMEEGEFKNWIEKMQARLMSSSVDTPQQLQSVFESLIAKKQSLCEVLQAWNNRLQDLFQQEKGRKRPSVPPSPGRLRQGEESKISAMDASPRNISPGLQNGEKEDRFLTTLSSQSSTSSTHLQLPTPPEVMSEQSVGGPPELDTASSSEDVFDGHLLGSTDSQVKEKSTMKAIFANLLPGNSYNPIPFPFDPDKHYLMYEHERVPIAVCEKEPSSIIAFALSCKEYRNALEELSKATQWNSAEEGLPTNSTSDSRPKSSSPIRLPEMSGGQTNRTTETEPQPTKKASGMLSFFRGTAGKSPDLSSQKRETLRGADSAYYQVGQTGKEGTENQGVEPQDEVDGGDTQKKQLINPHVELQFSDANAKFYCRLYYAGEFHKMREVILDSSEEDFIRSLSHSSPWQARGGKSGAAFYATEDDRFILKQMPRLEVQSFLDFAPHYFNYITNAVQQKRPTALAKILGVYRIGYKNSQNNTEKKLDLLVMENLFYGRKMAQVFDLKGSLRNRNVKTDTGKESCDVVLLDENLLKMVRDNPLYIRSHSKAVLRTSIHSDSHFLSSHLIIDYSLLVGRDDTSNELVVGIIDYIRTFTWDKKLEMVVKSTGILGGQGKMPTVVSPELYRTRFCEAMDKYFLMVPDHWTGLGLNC
structure (smiles),measurement,setting,value
C[C@@H]1COCCN1c1nc(N2CCOC[C@@H]2C)nc2sc(-c3cc[nH]n3)nc12,Kp at 2 h,[1],1.2
same,inhibition,[2],Active
same,concentration at 3 h,[3],2390 nM
same,IC50,[4],17 nM
same,AUC(0-t),[5],14.9 µM·h
same,Tmax,[6],1.3 h
same,inhibition,[7],Active
same,IC50,[8],37 nM
same,solubility,[9],120 µg/mL
same,Kp at 1 h,[10],4
same,Vd,[11],2.3 L/kg
same,microsomal CLint at 1 µM,[12],42 µL/min/mg
same,inhibition,[13],Dose-dependent effect
same,concentration at 3 h,[14],826 nM
same,concentration at 3 h,[15],929 nM
same,AUC(0-t),[16],4.41 µM·h
same,K,[17],0.006 min⁻¹
same,Cmax,[18],1120 nM
same,microsomal CLint,[19],42 µL/min/mg
same,bioavailability,[20],81%
same,IC50,[21],394 nM
same,IC50,[22],14 nM
same,Activity,[23],95%
same,IC50,[24],17 nM
same,Vd,[25],2.6 L/kg
same,inhibition,[26],inactive
same,half-life,[27],4.3 h
same,IC50,[28],> 10000 nM
same,concentration at 3 h,[29],2210 nM
same,IC50,[30],30 nM
same,Activity,[31],84%
same,Kp at 3 h,[32],1.3
same,Kp at 0.5 h,[33],1
same,IC50,[34],22 nM
same,Ratio IC50,[35],70
same,IC50,[36],1290 nM
same,concentration at 3 h,[37],5820 nM
same,IC50,[38],2200 nM
